Assay in all cases: inhibition of tumour cell growth, NCI panel, 48 h
The subject of test [1] is SNB-75 CNS.
Test [2] deals with U251 CNS.
For test [3], the system named is PC-3 prostate.
For test [4], the system named is NCI-H226 lung.
For test [5], the system named is COLO 205 colon.
In test [6] the test system is CCRF-CEM leukemia.
The subject of test [7] is SK-OV-3 ovarian.
Test [8] concerns SF-268 CNS.

Where “and” joins values, the source holds several entries; their conditions need not be identical. Equal values may be shown once.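 Cells were grown in 96-well plates and exposed to each compound for 48 hours at five concentrations; endpoints were interpolated linearly between bracketing concentrations, or set to the highest concentration if not reached. GI50 marks 50% less growth. TGI is the concentration that stops growth completely.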

`Cc1nc(NC(C)(CO)CO)nc(N/N=C/c2ccc(Cl)cc2)c1C(=O)Nc1ccc(Cl)cc1`: the TGI in test [1], in test [2], in test [3], in test [4], in test [5] and in test [6] was over 100 µM in each case. Further, the TGI in test [7] and in test [8] was over 100 µM in each case.

Take `C=C1c2nc3ccccc3n2C=C(c2ccc(C)cc2)N1c1ccc(OC)cc1`: the TGI in test [1], in test [2], in test [3], in test [4], in test [5] and in test [6] was over 100 µM throughout. Moreover, the TGI in test [7] and in test [8] was over 100 µM each time.

Regarding `O=C(O)C(Cc1ccccc1)NCc1c(O)ccc2c(-c3ccccc3)cc(=O)oc12` (centres undefined), the TGI in test [1], in test [2], in test [3], in test [4], in test [5] and in test [6] was over 100 µM each time. For the same compound, the TGI in test [7] and in test [8] was over 100 µM throughout.

For `CCOC(=O)NC(=S)N(CC(=O)c1cc(OC)c(OC)c(OC)c1)c1ccc(Cl)cc1`, the GI50 in test [1] was 34.1 µM; in test [2], 99.7 µM; in test [3], 72.2 µM; in test [4], over 100 µM; in test [5], over 100 µM; in test [6], 71.4 µM. Also, the GI50 in test [7] and in test [8] was over 100 µM throughout. For the same compound, the TGI in test [1], in test [2], in test [3], in test [4], in test [5] and in test [6] was over 100 µM in each case. Besides, the TGI in test [7] and in test [8] was over 100 µM throughout.

Take `N#Cc1c(-c2ccc([N+](=O)[O-])cc2)c(C#N)c(=O)n(NS(=O)(=O)c2ccccc2)c1S`: the TGI in test [1] was over 100 µM; in test [2] it was over 100 µM; in test [3], over 100 µM; in test [4], over 100 µM; in test [5] it was over 100 µM; in test [6], 49.3 µM. The TGI in test [7] and in test [8] was over 100 µM each time.

In the case of `C[C@]12CC[C@H]3[C@@H](CC=C4C[C@@H](N5CCCC5)CC[C@@]43C)[C@@H]1C[C@H](N1CCCCC1)[C@@H]2O`, the TGI in test [1], in test [2], in test [3], in test [4], in test [5] and in test [6] was over 100 µM each time. In addition, the TGI in test [7] and in test [8] was over 100 µM throughout.

Consider `COC1CC(C)(NC(=O)C(F)(F)F)C2OC(c3ccccc3)OCC2O1` (centres undefined), for which the TGI in test [1], in test [2], in test [3], in test [4], in test [5] and in test [6] was over 100 µM throughout. Also, the TGI in test [7] and in test [8] was over 100 µM throughout.

Take `Cc1ccccc1NC(=O)O/N=C(\Cl)C(C)C`: the TGI was 32.1 µM in test [1]; 39.9 µM in test [2]; 31 µM in test [3]; 30.7 µM in test [4]; 3.29 µM in test [5]; over 21.7 µM in test [6]. Further, the TGI is 32.8 µM in test [7] and 45.1 µM in test [8].

On to `COC(=N)C1(C#N)NC(c2ccsc2)C(C#N)(C#N)NC1c1ccsc1` (centres undefined), for which the TGI in test [1], in test [2], in test [3], in test [4], in test [5] and in test [6] was over 100 µM throughout. The TGI in test [7] and in test [8] was over 100 µM in each case.

Take `COc1cc(CCNC2=CC(=O)c3nc[nH]c3C2=O)ccc1O`: the TGI in test [1] is 40.4 µM; in test [2] it was 63.3 µM; in test [3], over 100 µM; in test [4] it was 86.8 µM; in test [5], 56.5 µM; in test [6] it was over 100 µM. In addition, the TGI was 90.2 µM in test [7] and over 100 µM in test [8].

On to `CCOP(=O)(/C=C/n1cc(C)c(=O)[nH]c1=O)OCC`, for which the TGI in test [1], in test [2], in test [3], in test [4], in test [5] and in test [6] was over 100 µM throughout. Besides, the TGI in test [7] and in test [8] was over 100 µM throughout.

Consider `COP(=O)(OC)OCN(C)CC/C=C(\C)CC/C=C(\C)CCC=C(C)C`, for which the TGI in test [1] came out at 28 µM; in test [2], 37.6 µM; in test [3], 21.2 µM; in test [4], 34.6 µM; in test [5] it was 34 µM; in test [6] it was 51.9 µM. The TGI was over 100 µM in test [7] and 30.8 µM in test [8].

`O=[N+]([O-])c1ccc(-n2nc3ccc4nonc4c3n2)cc1`: the TGI in test [1] is 30.8 µM; in test [2], over 100 µM; in test [3], over 100 µM; in test [4], 65.3 µM; in test [5], over 100 µM; in test [6] it was over 100 µM. Moreover, the TGI in test [7] was 56.5 µM; in test [8], over 100 µM.

As to `Nc1[nH]c(=O)nc2c1ncn2C1OC(CO)C(O)C1O` (centres undefined), the TGI in test [1] is 20.6 µM; in test [2], over 100 µM; in test [3], 60.2 µM; in test [4], over 100 µM; in test [5], over 100 µM; in test [6], 75.3 µM. The TGI in test [7] and in test [8] was over 100 µM each time.

On to `C[n+]1cccc2ccc3cccnc3c21`, for which the TGI in test [1] was 65.1 µM; in test [2], over 100 µM; in test [3], over 100 µM; in test [4] it was 70 µM; in test [5] it was 70 µM; in test [6] it was over 100 µM. The values for the TGI in test [7] and in test [8] were over 100 µM and 55.8 µM, respectively.

`COc1cc2c(cc1O)C1Cc3ccc(OC)c(O)c3C[N+]1(C)CC2` (centres undefined): the TGI in test [1], in test [2], in test [3], in test [4], in test [5] and in test [6] was over 100 µM each time. The TGI in test [7] and in test [8] was over 100 µM each time.

Regarding `Cc1cn(CCCCCCOC(=O)NC(CCCNC(N)=O)C(=O)O)c(=O)[nH]c1=O` (centres undefined), the TGI in test [1], in test [2], in test [3], in test [4], in test [5] and in test [6] was over 100 µM in each case. Besides, the TGI in test [7] and in test [8] was over 100 µM throughout.

On to `CN1CCN(C(=O)c2cn(Cc3cncn3Cc3ccc4c(c3)OCO4)cc2-c2cccc3ccccc23)CC1`, for which the TGI in test [1] was 67.9 µM; in test [2], over 100 µM; in test [3] it was over 86.3 µM; in test [4], over 100 µM; in test [5] it was 49.9 µM; in test [6] it was over 77.2 µM. Also, the TGI in test [7] was over 100 µM; in test [8], 66.5 µM.

As for `COc1ccc(CCNC(=O)Cc2ccccc2CO)cc1OC`, the TGI in test [1], in test [2], in test [3], in test [4], in test [5] and in test [6] was over 100 µM throughout. For the same compound, the TGI in test [7] and in test [8] was over 100 µM in each case.

In the case of `CC1=NN(C(=O)CC(=O)Nc2cccc(C)c2)C(=O)C1N=Nc1ccc(S(=O)(=O)CCOS(=O)(=O)O)cc1` (centres undefined), the TGI in test [1] is 19.7 µM; in test [2], 13.6 µM; in test [3], 11.2 µM; in test [4], 6.79 µM; in test [5] it was 8.42 µM; in test [6], over 100 µM. In addition, the TGI worked out at 17 µM in test [7] and 28 µM in test [8].

`CCC1(c2ccc(N3C(=O)c4cccc5cc([N+](=O)[O-])cc(c45)C3=O)cc2)CCC(=O)NC1=O` (centres undefined): the TGI in test [1] is 68 µM; in test [2] it was 23.8 µM; in test [3], over 100 µM; in test [4], 29 µM; in test [5], over 100 µM; in test [6] it was 35 µM. The TGI amounted to 39.5 µM in test [7] and 51.8 µM in test [8].

For `O=CCCCCCOCc1ccccc1`, the TGI in test [1] was over 100 µM; in test [2], over 100 µM; in test [3] it was over 100 µM; in test [4], over 100 µM; in test [5], over 100 µM; in test [6], over 69.9 µM. The TGI in test [7] and in test [8] was over 100 µM each time.

As to `CC(=O)NC1C(OCc2ccccc2)OC(CO)C(O)C1OC(C)C(=O)N[C@@H](C)C(=O)N[C@H](CCC(=O)NCCNCCNc1c2ccccc2nc2cccc([N+](=O)[O-])c12)C(N)=O` (some centres undefined), the TGI in test [1] is 0.883 µM; in test [2], 3.41 µM; in test [3] it was 0.891 µM; in test [4], 0.716 µM; in test [5] it was 0.198 µM; in test [6], over 100 µM. The TGI in test [7] is 2.05 µM; in test [8] it was 2.14 µM.

As to `Cn1/c(=N\N=C2\C=C3CCCCC3(C)CC2)sc2ccccc21` (centres undefined), the TGI in test [1], in test [2], in test [3], in test [4], in test [5] and in test [6] was over 100 µM throughout. In addition, the TGI in test [7] and in test [8] was over 100 µM each time.

For the compound `ClC1=NN=C(c2c[nH]c3ccccc23)CC1NCc1ccccc1` (centres undefined), the TGI in test [1], in test [2], in test [3], in test [4], in test [5] and in test [6] was over 100 µM each time. In addition, the TGI in test [7] and in test [8] was over 100 µM each time.

In the case of `COC1(CC[C@@H](C)COC2OC(CO)C(O)C(O)C2O)OC2C[C@H]3[C@@H]4CC[C@H]5C[C@@H](OC6OC(CO)C(OC7OC(CO)C(O)C(O)C7O)C(O)C6OC6OC(C)C(O)C(O)C6O)[C@H](O)C[C@]5(C)[C@H]4CC[C@]3(C)C2[C@@H]1C` (some centres undefined), the TGI stood at 3.49 µM in test [1]; 3.49 µM in test [2]; 3.45 µM in test [3]; 4.52 µM in test [4]; 6.69 µM in test [5]; 3.9 µM in test [6]. The TGI in test [7] worked out at 3.28 µM; in test [8], 3.99 µM.

Turning to `COC(=O)C1OC(O[C@H]2CC[C@]3(C)[C@H]4CC=C5[C@@H]6CC(C)(C)CC[C@]6(C(=O)OC6OCC(O)C(O)C6OC6OC(C)C(OC7OCC(O)C(O)C7O)C(O)C6O)[C@H](O)C[C@@]5(C)[C@]4(C)CC[C@H]3C2(C)C)C(O)C(O)C1O` (some centres undefined), the TGI in test [1] was 18.5 µM and 20.9 µM; in test [2] it was 17.7 µM and 19.8 µM; in test [3] it was 16.9 µM and 16.3 µM; in test [4], 13.9 µM and 24.8 µM; in test [5] it was 3.02 µM and 3.31 µM; in test [6] it was over 100 µM. For the same compound, the TGI in test [7] is 23.5 µM and 26.3 µM; in test [8], 22.4 µM and 23.2 µM. Moreover, the GI50 in test [6] was > 68.4 µM and 13.5 µM.

For `CC(C)(C)C1CCC2c3c([nH]c4ccccc34)C3C(=O)N(c4ccc([N+](=O)[O-])cc4)C(=O)C3C2C1` (centres undefined), the TGI in test [1] is 38.4 µM; in test [2], 38.5 µM; in test [3] it was over 100 µM; in test [4] it was 29 µM; in test [5], 21.1 µM; in test [6], over 100 µM. In addition, the TGI stood at 73.9 µM in test [7] and 34.8 µM in test [8].

Take `Cc1c(C)c2c(c(N)c1C#N)C(=O)N(N)C2=O`: the TGI in test [1], in test [2], in test [3], in test [4], in test [5] and in test [6] was over 100 µM each time. Also, the TGI in test [7] and in test [8] was over 100 µM in each case.

Consider `C/C(=C1\N=C(c2ccccc2)OC1=O)c1ccccc1`, for which the TGI in test [1], in test [2], in test [3], in test [4], in test [5] and in test [6] was over 100 µM throughout. Moreover, the TGI in test [7] and in test [8] was over 100 µM in each case.

The values are drawn from PubChem BioAssay (NCI).
